# In patent publication US20240041764A1, “Sustained-Release Oral Fosamprenavir Formulation for Treatment of Reflux” (The Medical College of Wisconsin, Inc., priority 2022, published 2024):
# Key:
# porcine pepsin A = target: T1, porcine pepsin A (Sus scrofa, UniProt P00791); assay: competitive binding assay, fluorescence polarization with pepstatin-Alexa647; details: 100 nM probe, 0.03 U/ul porcine pepsin A, 37.5% DMSO, 0.1 M HCl pH 1
# T1 construct: purchased Worthington Biochemical Corporation
# T1 sequence (P00791 60-385): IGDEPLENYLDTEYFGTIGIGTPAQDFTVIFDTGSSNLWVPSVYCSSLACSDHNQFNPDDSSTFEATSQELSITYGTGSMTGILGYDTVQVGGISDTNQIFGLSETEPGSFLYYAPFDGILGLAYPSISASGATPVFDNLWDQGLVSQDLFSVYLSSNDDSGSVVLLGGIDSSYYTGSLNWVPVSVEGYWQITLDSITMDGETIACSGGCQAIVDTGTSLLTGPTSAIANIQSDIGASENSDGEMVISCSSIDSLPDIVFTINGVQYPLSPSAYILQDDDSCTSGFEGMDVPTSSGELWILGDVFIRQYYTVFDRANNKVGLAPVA
# Description: To examine whether HIV protease inhibitors bound and inhibited pepsin, we developed assays based on fluorescence polarization which measures size-dependent molecular rotation thereby permitting detection of degradation, association and dissociation events^80. A competitive binding assay was designed employing pepstatin, an inhibitor of sub-nanomolar affinity^81. Pepstatin-Alexa647 was synthesized by dissolving 1 mg pepstatin A (Sigma-Aldrich) in a 50:50 mixture of dimethylformamide (DMF) and dimethylsulfoxide (DMS) followed by the addition of N,N,N′,N′-Tetramethyl-O—(N-succinimidyl)uronium tetrafluoroborate (0.6 mg) and trimethylamine (10 μL) DMF. The mixture was stirred for 1 hour, after which 1 mg Alexa Fluor 647 Cadaverine, Disodium Salt (ThermoFisher Scientific) was added. After 2 hours, the solvents were evaporated under high vacuum (35° C.) and residue partially dissolved in 10% methanol and transferred onto a C18 cartridge (Waters Corporation, Milford, MA). Increasing percentages of methanol were used for the elution. Pepstatin-Alexa647 eluted at 45% methanol. An enzymatic inhibition assay was designed using casein substrate.^82 Bovine alpha casein (Sigma-Aldrich, St. Louis, MO) was labeled with Alexa Fluor 647 Carboxylic Acid, Succinimidyl Ester (ThermoFisher Scientific, Waltham, MA) as described.^82 Briefly, the two were combined at 2.5 ug/mg label to protein ratio in 0.1M sodium bicarbonate for 15 minutes and labeled casein was separated from unbound label in a Sephadex G-25 (Sigma-Aldrich) column comprised of 90×5 mm packed beads in a glass Pasteur pipette, eluted with dPBS pH7.4 (ThermoFisher Scientific). The fast-moving band (casein-bound fluorophore) was collected in ˜0.4 ml volume. […]
# (§1) Assays were optimized using ranges of 0.3-1000 μM unlabeled pepstatin, 100-500 nM pepstatin-Alexa647 or casein-Alexa647 probe, 0.003-3 U/μl porcine pepsin (Worthington Biochemical Corporation, Lakewood, NJ), and 5-37.5% DMSO (HIV protease inhibitor diluent) in 0.1 M HCl, pH 1 with 0.01% v/v Tween-20 in 20 μl volumes in 384-well black optical plates (Nunc, Roskilde, DK) and read on a BioTek Cytation 5 (BioTek Instruments, Winooski, VT) with far red FP filter cube (excitation/emission 620/680 nm). […] Assays were performed twice with triplicate reactions read for five minutes and mean mP plotted against probe concentration (binding assay) or read at <2 minutes intervals over 30 minutes with mean mP of plotted over time (activity assay). Half maximal inhibitory concentration (IC50) of inhibitors were calculated from kinetic traces analyzed using an online tool (https://icekat.herokuapp.com/icekat)^83. mP was normalized to blank (absent inhibitor) to derive percent bound or activity.
# porcine pepsin = target: T2, porcine pepsin (Sus scrofa, UniProt P00791); assay: peptic activity assay, fluorescence polarization with casein-Alexa647; type: biochemical; details: for IC50 for pepsin: in vitro binding and inhibition assays, IC50 from kinetic traces
# T2 construct: purchased Worthington Biochemical Corporation
# T2 sequence (P00791 60-385): as above
# Description: To examine whether HIV protease inhibitors bound and inhibited pepsin, we developed assays based on fluorescence polarization which measures size-dependent molecular rotation thereby permitting detection of degradation, association and dissociation events^80. A competitive binding assay was designed employing pepstatin, an inhibitor of sub-nanomolar affinity^81. Pepstatin-Alexa647 was synthesized by dissolving 1 mg pepstatin A (Sigma-Aldrich) in a 50:50 mixture of dimethylformamide (DMF) and dimethylsulfoxide (DMS) followed by the addition of N,N,N′,N′-Tetramethyl-O—(N-succinimidyl)uronium tetrafluoroborate (0.6 mg) and trimethylamine (10 μL) DMF. The mixture was stirred for 1 hour, after which 1 mg Alexa Fluor 647 Cadaverine, Disodium Salt (ThermoFisher Scientific) was added. After 2 hours, the solvents were evaporated under high vacuum (35° C.) and residue partially dissolved in 10% methanol and transferred onto a C18 cartridge (Waters Corporation, Milford, MA). Increasing percentages of methanol were used for the elution. […] An enzymatic inhibition assay was designed using casein substrate.^82 Bovine alpha casein (Sigma-Aldrich, St. Louis, MO) was labeled with Alexa Fluor 647 Carboxylic Acid, Succinimidyl Ester (ThermoFisher Scientific, Waltham, MA) as described.^82 Briefly, the two were combined at 2.5 ug/mg label to protein ratio in 0.1M sodium bicarbonate for 15 minutes and labeled casein was separated from unbound label in a Sephadex G-25 (Sigma-Aldrich) column comprised of 90×5 mm packed beads in a glass Pasteur pipette, eluted with dPBS pH7.4 (ThermoFisher Scientific). The fast-moving band (casein-bound fluorophore) was collected in ˜0.4 ml volume. Concentration of resultant probe (casein-Alexa647 in PBS-azide) was estimated via spectrophotometry using Beer's law (Implen Nanophotometer, Implen, Inc. Westlake Village, CA).
# as §1, with “nm). Unlabeled pepstatin dose-response curves were used to ensure that the assays were responsive to pepsin inhibition.” for “nm).”
compound,measurement,setting,value
"CC(C)CN(C[C@@H](O)[C@H](Cc1ccccc1)NC(=O)O[C@H]1CO[C@H]2OCC[C@H]21)S(=O)(=O)c1ccc(N)cc1 [darunavir, [(3aS,4R,6aR)-2,3,3a,4,5,6a-hexahydrofuro[2,3-b]furan-4-yl]N-[(2S,3R)-4-[(4-aminophenyl)sulfonyl-(2-methylpropyl)amino]-3-hydroxy-1-phenylbutan-2-yl]carbamate]",bound pepsin (competitive binding),porcine pepsin A,low micromolar
same,inhibited pepsin (peptic activity),"porcine pepsin; 200 nM probe, 0.01 U/μL pepsin, 5% DMSO, 0.1 M HCl pH 1",low micromolar
same,IC50 for pepsin,porcine pepsin,low micromolar range
same,IC50 for pepsin,porcine pepsin; listed as Darunavir,lowest IC50
